In patent US20090041751A1, “Sepsis Prevention Through Adenosine Receptor Modulation” (priority 2005, published 2009):
“Also recorded” adds a separate entry of the source.

What was measured:
[1] = tested on: mice subjected to CLP; assay: Survival after cecal ligation and puncture (CLP)-induced sepsis; type: in vivo, mouse; details: CD-1 mice
Excerpt: For pharmacological studies with the selective A2A receptor antagonist 4-(2-[7-amino-2-(2-furyl)[1,2,4]triazolo[2,3-a][1,3,5]triazin-5-ylamino]ethyl)phenol(4-(2-[7-amino-2-(2-furyl[1,2,4]-triazolo[2,3-a[1,3,5]triazin-5-yl-aminoethyl)phenol (“ZM241385”); Tocris Cookson Inc.), male CD-1 mice were used that were purchased from Charles River Laboratories.
Polymicrobial sepsis was induced by subjecting mice to CLP, as we have described previously, with some modifications. Six-to-eight-week-old male A2a receptor KO or WT mice were anesthetized with Nembutal (80 mg/kg), given i.p. Under aseptic conditions, a 2-cm midline laparotomy was performed to allow exposure of the cecum with adjoining intestine. Approximately two-thirds of the cecum was tightly ligated with a 3.0 silk suture, and the ligated part of the cecum perforated twice (through and through) with a 20-gauge needle (Beckton Dickinson). The cecum was then gently squeezed to extrude a small amount of feces from the perforation sites. The cecum was then returned to the peritoneal cavity and the laparotomy closed in two layers with 4.0 silk sutures. Sham-operated animals underwent the same procedure without ligation or puncture of the cecum. The mice were resuscitated with 1 ml of physiological saline injected s.c., and returned to their cages with free access to food and water. One group of mice was monitored daily and survival recorded for 10 days. Another group of mice was re-anesthetized with Nembutal (80 mg/kg; i.p.) 16 or 48 hours after the operation, and blood, peritoneal lavage fluid, and various organs were harvested as described below.
The effect of pharmacological inactivation of A2A receptors in mice subjected to CLP was evaluated using CD-1 mice in a similar fashion to that described for the A2A receptor KO or WT mice. […]
Survival curves were analyzed using the two-tailed Fisher's exact test. […]

[2] = tested on: IL-10, IL-6, MIP-2, IL-12; assay: Cytokine levels (ELISA) in plasma and peritoneal lavage fluid after CLP; type: in vivo, mouse
Method: The effect of pharmacological inactivation of A2A receptors in mice subjected to CLP was evaluated using CD-1 mice in a similar fashion to that described for the A2A receptor KO or WT mice. In this set of experiments, the mice were injected immediately before or 2 hours after the operation and every 12 hours thereafter with 4-(2-[7-amino-2-(2-furyl[1,2,4]-triazolo[2,3-a[1,3,5]triazin-5-yl-aminoethyl)phenol (“ZM241385”) (15 mg/kg, s.c.) or its vehicle (DMSO). Blood samples were obtained aseptically by cardiac puncture using heparinized syringes after opening the chest and placed on ice into heparinized Eppendorf tubes until further processing for hematological and bacteriological analysis. Aliquots of whole blood were analyzed for hematology by flow cytometry (CELL-DYN 3200 System, Abbott Laboratories) in a centralized facility. After serial dilutions for bacteriological analysis were made (see below), the blood was centrifuged at 2000×g for ten minutes and the recovered plasma stored at −70° C. until further use. For peritoneal lavage, the abdominal skin was cleansed with 70% ethanol and the abdominal wall exposed by opening the skin. Four milliliters of sterile physiological saline was then installed into the peritoneal cavity via an 18-gauge needle. The abdomen was massaged gently for 1 minute while keeping the tip of the needle in the peritoneum, after which procedure peritoneal fluid was recovered through the needle. Recovered peritoneal lavage fluid was placed on ice until processed for bacteriological examination. After serially diluting the peritoneal lavage fluid to determine CFU numbers (see below), the peritoneal lavage fluid was centrifuged at 5000×g for ten minutes and the supernatant stored at −70° C. until further analysis. Samples from spleen, thymus, lung, kidneys, and liver were excised and either immediately frozen in liquid nitrogen or placed in 10% paraformaldehyde for subsequent histological analysis. Snap-frozen tissue samples were transferred to a −70° C. refrigerator until analyzed for gene expression and apoptotic markers. Concentrations of IL-10, IL-6, IL-12 p70, TNF-α and MIP-2, in plasma or peritoneal lavage fluid were determined using commercially available ELISA kits (R&D Systems) and according to the manufacturer's instructions. The lower detection limit for all these cytokines was 10 pg/ml. Plasma concentrations of AST, ALT, and BUN were analyzed using standard laboratory procedures. Survival curves were analyzed using the two-tailed Fisher's exact test. Two-tailed t testing was used to compare cytokine concentrations, CFUs, and other laboratory parameters. Statistical significance was assigned to p values smaller than 0.05.

[3] = 15 mg/kg s.c. twice daily, 16 hours after CLP, FIG. 6C
[4] = 15 mg/kg s.c. twice daily, 16 hours after CLP, FIG. 6D
[5] = 15 mg/kg s.c. twice daily, 16 hours after CLP, FIG. 6E
[6] = mouse CLP sepsis model, FIG. 10, matrix not stated

## Nc1nc(NCCc2ccc(O)cc2)nc2nc(-c3ccco3)nn12 [ZM241385]
[1]; 15 mg/kg s.c. twice daily starting 2 hours after resuscitation, survival monitored 5 days, FIG. 6B, 15 mg/kg
  survival after CLP vs vehicle-treated mice, delayed administration: still protective; also recorded: protects mice from death
[1]; 15 mg/kg s.c. twice daily starting at time of resuscitation (time 0), survival monitored 5 days, FIG. 6A, 15 mg/kg
  survival after CLP vs vehicle-treated mice: significantly improved survival; also recorded: protects mice from death
[1]; survival recorded for 2 days, FIG. 9
  survival after CLP: improved survival
[2]; [3]
  IL-10 level in peritoneal lavage fluid vs vehicle-treated mice: decreased
  IL-10 level in plasma vs vehicle-treated mice: decreased
[2]; [4]
  IL-6 concentration in plasma vs vehicle-treated mice: comparable
  IL-6 level in peritoneal fluid vs vehicle-treated mice: lower; also recorded: attenuated
[2]; [5]
  MIP-2 level in peritoneal lavage fluid vs vehicle-treated mice: decreased
  MIP-2 level in plasma vs vehicle-treated mice: decreased
[2]; [6]
  IL-10 levels vs vehicle treated mice: Decreased levels
  IL-12 concentrations vs vehicle treated mice: comparable
  MIP-2 levels vs vehicle treated mice: Decreased levels
